US11718603B2, “CDK2 inhibitors” (Pfizer Inc., priority 2019, dated 2023)
Read-outs that look alike come from different tables or passages of the source.

Key:
[1] = target: CDK2/Cyclin E1 (Homo sapiens (Human), UniProt P24941); experiment: CDK2/Cyclin E1 full length mobility shift assay; assay type: biochemical
Protocol: CDK2/Cyclin E1 Full Length Mobility Shift Assay
Wild-type CDK2/wild-type full length Cyclin E1 enzyme complex was produced in-house (baculoviral expression, LJIC-2080/LJIC-2103) and phosphorylated by CDK7/Cyclin H1/Mat1 enzyme complex with CDK2:CDK7 ratio of 50:1 (concentration mg/mL) in the presence of 10 mM MgCl2 and 5 mM ATP at room temperature for one hour. […] The assay was initiated with the addition of ATP, following a fifteen minutes pre-incubation of enzyme and inhibitor at room temperature in the reaction mixture. The reaction was stopped after 45 minutes at room temperature by the addition of 50 μL of 80 mM EDTA.

[2] = target: T1, GSK3β (Homo sapiens, UniProt P49841); experiment: biochemical; conditions: GSK3β Ki (nM)
Protocol: (§1) The assay was initiated with the addition of ATP, following 15 minutes pre-incubation of enzyme and inhibitor at room temperature in the reaction mixture. The reaction was stopped after 30 minutes at room temperature by the addition of 50 μL of 80 mM EDTA.

[3] = target: T1, GSK3β; conditions: read-out: GSK3β Ki
Protocol: as §1

| Compound | Ki [1] | Ki [2] | Ki [3] |
| --- | --- | --- | --- |
| Cc1ncc(CC(=O)Nc2cc([C@@H]3CC[C@H](OC(=O)N[C@@H]4CCOC[C@H]4C)C3)[nH]n2)s1 (single isomer, unassigned; isomer a) [Example 510, (1S,3R)-3-(3-{[(2-methyl-1,3-thiazol-5-yl)acetyl]amino}-1H-pyrazol-5-yl)cyclopentyl [(3S*,4R*)-3-methyltetrahydro-2H-pyran-4-yl]carbamate- Isomer A] | 0.19 nM | 14 nM | – |
| Cc1ncc(CC(=O)Nc2cc([C@@H]3CC[C@H](OC(=O)N[C@@H]4CCOC[C@H]4C)C3)[nH]n2)s1 (single isomer, unassigned; isomer b) [Example 511, (1S,3R)-3-(3-{[(2-methyl-1,3-thiazol-5-yl)acetyl]amino}-1H-pyrazol-5-yl)cyclopentyl [(3S*,4R*)-3-methyltetrahydro-2H-pyran-4-yl]carbamate- Isomer B] | 1.52 nM | 4.74 nM | – |
| Cc1ncc(CC(=O)Nc2cc([C@H]3CC[C@@H](OC(=O)NC(C)C)C3)[nH]n2)s1 [Example 2, (1R,3S)-3-(3-{[(2-methyl-1,3-thiazol-5-yl)acetyl]amino}-1H-pyrazol-5-yl)cyclopentyl propan-2-ylcarbamate] | 0.31 nM | – | – |
| CC[C@H](C)NC(=O)O[C@@H]1CC[C@H](c2cc(NC(=O)c3cc(COC)nn3C)n[nH]2)C1 [Example 14, (1R,3S)-3-[3-({[3-(methoxymethyl)-1-methyl-1H-pyrazol-5-yl]carbonyl}amino)-1H-pyrazol-5-yl]cyclopentyl (2S)-butan-2-ylcarbamate] | 0.27 nM | – | 294 nM |
| COc1ccc(CC(=O)Nc2cc([C@@H]3CC[C@H](OC(=O)N4CCC4(C)C)C3)[nH]n2)cn1 [Example 145] | 0.12 nM | – | – |
| Cc1cc(CC(=O)Nc2cc([C@H]3CC[C@@H](OC(=O)N4CCCC[C@@H]4C)C3)[nH]n2)on1 [Example 640, (1R,3S)-3-(3-{[(3-methyl-1,2-oxazol-5-yl)acetyl]amino}-1H-pyrazol-5-yl)cyclopentyl(2S)-2-methylpiperidine-1-carboxylate] | – | – | 13.3 nM |
